Data taken from paper PMC12517324, “Hyperagonism of a Vitamin D Receptor Agonist/Histone Deacetylase Inhibitor Hybrid Molecule” (Journal of Medicinal Chemistry, 2025).

Tested on: B16–F10 cells
Assay: RNaseq gene expression profiling;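 for logFC Ak4: Hybrid compounds tested at 10 µM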;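 for logFC Cck: Hybrid compounds tested at 10 µM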;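 for logFC Cited1: Hybrid compounds tested at 10 µM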;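 for logFC Gpd1: Hybrid compounds tested at 10 µM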;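 for logFC Mgll: Hybrid compounds tested at 10 µM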;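 for logFC Nr4a3: Hybrid compounds tested at 10 µM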;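 for logFC Rnf145: Hybrid compounds tested at 10 µM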;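 for logFC Rpia: Hybrid compounds tested at 10 µM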;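 for logFC Sema7a: Hybrid compounds tested at 10 µM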;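 for logFC Snrpd1: Hybrid compounds tested at 10 µM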;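 for logFC Spc24: Hybrid compounds tested at 10 µM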;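 for logFC Tk1: Hybrid compounds tested at 10 µM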;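 for logFC Tonsl: Hybrid compounds tested at 10 µM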;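 for logFC Tpi1: Hybrid compounds tested at 10 µM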;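 for logFC Ugdh: Hybrid compounds tested at 10 µM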
Assay type: cell-based, mouse
Protocol: AC-340 superinduced CYP24A1 expression in all cell lines tested, and ZG-126 appeared to be a hyperagonist in SK-MEL-28 cells. […] AC-340 treatment produced 3 times more differentially expressed genes (DEGs) than AM-193, with ZG-126 producing an intermediate number (Figure A). […] The varying effects of each treatment on the numbers of regulated genes and the fold changes observed are reflected in plots of log-fold changes and volcano plots (Figure S3B).
A quality control was performed before sequencing in paired-end at 50 M reads by Illumina NovaSeq 6000 S4 PE100. After sequencing, the FASTQ files were sent to us and all downstream analysis were performed on Galaxy (Galaxy (usegalaxy.org)). First, trimmomatic tool was used to remove the adapters from the reads. Then, using the alignment tool, HISAT2, the reads were mapped to the mouse genome. In the next step, the counted reads were annotated and finally the list of differentially expressed genes (DEGs) for each treatment was obtained using the preinstalled R package called Limma.

CCC(CC)(c1ccc(OCCCCCC(=O)NO)cc1)c1ccc(OCC(O)C(C)(C)C)c(C)n1 (stereo not shown) [AM-193]
logFC Rnf145 (RNAseq, gene Rnf145, AM193-significant genes): -0.7842 | logFC Rpia (RNAseq, gene Rpia, AM193-significant genes): -0.7096 | logFC Samd1 (RNAseq, gene Samd1, AM193-significant genes): -0.798 | logFC Selenbp1 (RNAseq, gene Selenbp1, AM193-significant genes): -1.012 | logFC Sema7a (RNAseq, gene Sema7a, AM193-significant genes): -0.8174 | logFC Sfxn2 (RNAseq, gene Sfxn2, AM193-significant genes): -0.9624 | logFC Sigmar1 (RNAseq, gene Sigmar1, AM193-significant genes): -0.7437 | logFC Sik1 (RNAseq, gene Sik1, AM193-significant genes): -0.7218 | logFC Ska3 (RNAseq, gene Ska3, AM193-significant genes): -0.7116 | logFC Slc2a1 (RNAseq, gene Slc2a1, AM193-significant genes): -1.04 | logFC Slc37a4 (RNAseq, gene Slc37a4, AM193-significant genes): -0.9222 | logFC Slc39a10 (RNAseq, gene Slc39a10, AM193-significant genes): -0.7848 | logFC Snrpa1 (RNAseq, gene Snrpa1, AM193-significant genes): -1.002 | logFC Snrpd1 (RNAseq, gene Snrpd1, AM193-significant genes): -0.7702 | logFC Spc24 (RNAseq, gene Spc24, AM193-significant genes): -0.7364 | logFC Srm (RNAseq, gene Srm, AM193-significant genes): -1.055 | logFC Tarbp1 (RNAseq, gene Tarbp1, AM193-significant genes): -0.7191 | logFC Tbl2 (RNAseq, gene Tbl2, AM193-significant genes): -0.8635 | logFC Tet1 (RNAseq, gene Tet1, AM193-significant genes): -0.8944 | logFC Tfap4 (RNAseq, gene Tfap4, AM193-significant genes): -1.016 | logFC Tinagl1 (RNAseq, gene Tinagl1, AM193-significant genes): -0.9151 | logFC Tk1 (RNAseq, gene Tk1, AM193-significant genes): -0.987 | logFC Tonsl (RNAseq, gene Tonsl, AM193-significant genes): -0.711 | logFC Tpi1 (RNAseq, gene Tpi1, AM193-significant genes): -0.895 | logFC Trip13 (RNAseq, gene Trip13, AM193-significant genes): -0.8647 | logFC Trmt61a (RNAseq, gene Trmt61a, AM193-significant genes): -0.7832 | logFC Trpm1 (RNAseq, gene Trpm1, AM193-significant genes): -0.743 | logFC Ttk (RNAseq, gene Ttk, AM193-significant genes): -0.8273 | logFC Uba7 (RNAseq, gene Uba7, AM193-significant genes): -0.9636 | logFC Ugdh (RNAseq, gene Ugdh, AM193-significant genes): -0.8794 | logFC Ugp2 (RNAseq, gene Ugp2, AM193-significant genes): -0.7144 | logFC Uhrf1 (RNAseq, gene Uhrf1, AM193-significant genes): -0.8121 | logFC Xrcc3 (RNAseq, gene Xrcc3, AM193-significant genes): -0.7656 | logFC Abca12 (RNaseq, B16–F10 cells, gene Abca12 (ATP-binding cassette, sub-family A (ABC1), member 12), sheet AM193-significant genes): -1.21 | logFC Ak4 (RNaseq, B16–F10 cells, gene Ak4 (adenylate kinase 4), sheet AM193-significant genes): -1.909 | logFC Bnip3 (RNaseq, B16–F10 cells, gene Bnip3 (BCL2/adenovirus E1B interacting protein 3), sheet AM193-significant genes): -1.2222 | logFC Cck (RNaseq, B16–F10 cells, gene Cck (cholecystokinin), sheet AM193-significant genes): -1.792 | logFC Cited1 (RNaseq, B16–F10 cells, gene Cited1 (Cbp/p300-interacting transactivator with Glu/Asp-rich carboxy-terminal domain 1), sheet AM193-significant genes): -1.397 | logFC Dna2 (RNaseq, B16–F10 cells, gene Dna2 (DNA replication helicase/nuclease 2), sheet AM193-significant genes): -1.157 | logFC Gpd1 (RNaseq, B16–F10 cells, gene Gpd1 (glycerol-3-phosphate dehydrogenase 1 (soluble)), sheet AM193-significant genes): -1.351 | logFC H2bc12 (RNaseq, B16–F10 cells, gene H2bc12 (H2B clustered histone 12), sheet AM193-significant genes): -1.307 | logFC H3c8 (RNaseq, B16–F10 cells, gene H3c8 (H3 clustered histone 8), sheet AM193-significant genes): -1.15 | logFC Hk2 (RNaseq, B16–F10 cells, gene Hk2 (hexokinase 2), sheet AM193-significant genes): -1.284 | logFC Kit (RNaseq, B16–F10 cells, gene Kit (KIT proto-oncogene receptor tyrosine kinase), sheet AM193-significant genes): -2.0666 | logFC Lpar5 (RNaseq, B16–F10 cells, gene Lpar5 (lysophosphatidic acid receptor 5), sheet AM193-significant genes): -1.721 | logFC Megf6 (RNaseq, B16–F10 cells, gene Megf6 (multiple EGF-like-domains 6), sheet AM193-significant genes): -1.186 | logFC Mgll (RNaseq, B16–F10 cells, gene Mgll (monoglyceride lipase), sheet AM193-significant genes): -1.2265 | logFC Mknk2 (RNaseq, B16–F10 cells, gene Mknk2 (MAP kinase-interacting serine/threonine kinase 2), sheet AM193-significant genes): -1.156 | logFC Nr4a3 (RNaseq, B16–F10 cells, gene Nr4a3 (nuclear receptor subfamily 4, group A, member 3), sheet AM193-significant genes): -2.364 | logFC Oas2 (RNaseq, B16–F10 cells, gene Oas2 (2'-5' oligoadenylate synthetase 2), sheet AM193-significant genes): -1.532 | logFC Pafah1b3 (RNaseq, B16–F10 cells, gene Pafah1b3 (platelet-activating factor acetylhydrolase, isoform 1b, subunit 3), sheet AM193-significant genes): -1.354 | logFC Pdk1 (RNaseq, B16–F10 cells, gene Pdk1 (pyruvate dehydrogenase kinase, isoenzyme 1), sheet AM193-significant genes): -1.253 | logFC Sapcd2 (RNaseq, B16–F10 cells, gene Sapcd2 (suppressor APC domain containing 2), sheet AM193-significant genes): -1.167 | logFC Slc16a3 (RNaseq, B16–F10 cells, gene Slc16a3 (solute carrier family 16 (monocarboxylic acid transporters), member 3), sheet AM193-significant genes): -1.321 | logFC (gene 1700019D03Rik): 1.314 | logFC (gene 4930455G09Rik): 1.641 | logFC (gene Abca8b): 1.273 | logFC (gene Abcd2): 4.745 | logFC (gene Adamts7): 1.528 | logFC (gene Adamtsl5): 1.436 | logFC (gene Adssl1): 1.51 | logFC (gene Afap1l2): 1.64 | logFC (gene Akna): 1.375 | logFC (gene Aldh1l2): 1.268 | logFC (gene Ankrd23): 1.409 | logFC (gene Asns): 1.391 | logFC (gene Atp1b2): 1.2305 | logFC (gene Atp2b4): 1.278 | logFC (gene Atp8b3): 1.445 | logFC (gene Bmf): 1.318 | logFC (gene C1s1): 1.363 | logFC (gene Cacng7): 1.328 | logFC (gene Car11): 1.215 | logFC (gene Cebpb): 1.421 | logFC (gene Chn1): 1.21 | logFC (gene Cnn2): 1.571 | logFC (gene Col20a1): 1.535 | logFC (gene Csdc2): 1.317 | logFC (gene Cth): 1.456 | logFC (gene Ctsf): 1.525 | logFC (gene Cyb5r2): 1.681 | logFC (gene Dagla): 1.633 | logFC (gene Dbp): 1.36 | logFC (gene Ddr2): 1.2413 | logFC (gene Dgat1): 1.203 | logFC (gene Dgka): 1.571 | logFC (gene Dglucy): 1.251 | logFC (gene Eef2k): 1.203 | logFC (gene Efhd1): 5.014 | logFC (gene Ehd3): 1.292 | logFC (gene Fam83f): 1.352 | logFC (gene Fam178b): 1.456 | logFC (gene Fbxo2): 1.302 | logFC (gene Fbxo41): 1.469 | logFC (gene Fry): 1.598 | logFC (gene Fstl1): 1.467 | logFC (gene Gjc3): 1.602 | logFC (gene Gli1): 1.6149 | logFC (gene Glipr2): 1.645 | logFC (gene Gm19705): 1.68 | logFC (gene Gpr158): 1.296 | logFC (gene Gpr162): 1.524 | logFC (gene Gstm7): 1.44 | logFC (gene Heg1): 1.713 | logFC (gene Hid1): 1.246 | logFC (gene Hoga1): 1.608 | logFC (gene Hrc): 1.3608 | logFC (gene Id3): 1.638 | logFC (gene Inpp5e): 1.325 | logFC (gene Itga8): 1.267 | logFC (gene Jam2): 1.325 | logFC (gene Kif9): 1.315 | logFC (gene Lrrc75b): 1.346 | logFC (gene Lrtm2): 4.986 | logFC (gene Ltbp4): 1.39 | logFC (gene Mettl27): 1.2162 | logFC (gene Mmp11): 1.398 | logFC (gene Mmp28): 4.741 | logFC (gene Mxd4): 1.4725 | logFC (gene Nccrp1): 5.249 | logFC (gene Neurl3): 1.34 | logFC (gene Notch1): 1.541 | logFC (gene Notch3): 1.442 | logFC (gene Nova2): 1.445 | logFC (gene Nupr1): 1.537 | logFC (gene Nwd1): 1.316 | logFC (gene Pcdh1): 1.75 | logFC (gene Pck2): 1.456 | logFC (gene Pdlim2): 1.539 | logFC (gene Phlda3): 1.237 | logFC (gene Phyhd1): 1.588 | logFC (gene Pierce2): 1.323 | logFC (gene Plk2): 1.532 | logFC (gene Prelp): 5.529 | logFC (gene Prox1): 1.361 | logFC (gene Ptges): 4.4154 | logFC (gene Reck): 1.669 | logFC (gene Rom1): 1.351 | logFC (gene Scamp1): 1.346 | logFC (gene Scube3): 1.291 | logFC (gene Serpinb9b): 1.695 | logFC (gene Shank1): 1.222 | logFC (gene Slc17a7): 1.733 | logFC (gene Slc25a35): 1.406 | logFC (gene Slc25a42): 1.347 | logFC (gene Slc43a2): 1.207 | logFC (gene Sparc): 1.263 | logFC (gene Spn): 1.262 | logFC (gene Sync): 1.481 | logFC (gene Syt7): 1.364 | logFC (gene Trnp1): 1.3245 | logFC (gene Vdr): 5.618 | logFC (gene Wnt10a): 4.9613 | logFC (gene Zfr2): 1.286
